Experimental data reported in patent EP0687673A1, “Oxazole derivatives as antitumoral agents” (PHARMA MAR, S.A., priority 1994, dated 1995).
≈ marks a conversion by molar mass, not a printed value.

Tests used:
Format in all cases: cell-based
[1] = tested on: P-388 (suspension culture of a lymphoid neoplasm from DBA/2 mouse); test: Antitumor screening, growth inhibition of P-388 cells; conditions: P388, 72 h, three days of incubation at 37°C, approximate IC₅₀ vs control wells, duplicate
Protocol: (§1) Cells were maintained in logarithmic phase of growth in Eagle's Minimum Essential Medium, with Earle's Balanced Salts, with 2.0 mM L-Glutamine, with non-essential Amino Acids, without Sodium Bicarbonate (EMEM/NEAA); supplemented with 10% Fetal Calf Serum (FCS), 10⁻² M Sodium Bicarbonate and 0,1 g/1 Penicillin-G + Streptomycin Sulfate.
(§2) A simple screening procedure was carried out to determine and compare the antitumor activity of these compounds, using an adapted form of the method described by Bergeron et al., Biochem. Biophys. Res. Comm. (1984) 121 848 [Reference 6]. The antitumor cell employed was P-388 (suspension culture of a lymphoid neoplasm from DBA/2 mouse), A-549 (monolayer culture of a human lung carcinoma), HT-29 (monolayer culture of a human colon carcinoma) and MEL-28 (monolayer culture of a human melanoma).
(§3) P-388 cell were seeded into 16 mm wells at 1 x 10⁴ cells per well in 1 ml aliquots of MEM 5FCS containing the indicated concentration of drug. A separate set of cultures without drug was seeded as control growth to ensure that cells remained in exponential phase of growth. All determinations were carried out in duplicate. After three days of incubation at 37°C, 10% CO₂ in a 98% humid atmosphere, an approximate IC₅₀ was determined by comparing the growth in wells with drug to the growth in control wells.

[2] = tested on: A-549 (monolayer culture of a human lung carcinoma); test: Antitumor screening, growth inhibition of A-549 cells (Crystal Violet staining); conditions: A549, 72 h, three days of incubation at 37°C, approximate IC₅₀ vs control wells, duplicate
Protocol: as §1, §2
as §3, with “A-549, HT-29 and MEL-28 were” for “P-388 cell were”, “at 2” for “at 1”, “[…]” for “1 ml”, “MEM 10FCS” for “MEM 5FCS”, “atmosphere, the wells were stained with 0.1% Crystal Violet. An” for “atmosphere, an”

[3] = tested on: HT-29 (monolayer culture of a human colon carcinoma); test: Antitumor screening, growth inhibition of HT-29 cells (Crystal Violet staining); conditions: 72 h, three days of incubation at 37°C, approximate IC₅₀ vs control wells, duplicate
Protocol: as §1, §2
as §3, with “A-549, HT-29 and MEL-28 were” for “P-388 cell were”, “at 2” for “at 1”, “[…]” for “1 ml”, “MEM 10FCS” for “MEM 5FCS”, “atmosphere, the wells were stained with 0.1% Crystal Violet. An” for “atmosphere, an”

[4] = tested on: MEL-28 (monolayer culture of a human melanoma); test: Antitumor screening, growth inhibition of MEL-28 cells (Crystal Violet staining); conditions: SK-MEL-28, 72 h, three days of incubation at 37°C, approximate IC₅₀ vs control wells, duplicate
Protocol: as §1, §2
as §3, with “A-549, HT-29 and MEL-28 were” for “P-388 cell were”, “at 2” for “at 1”, “[…]” for “1 ml”, “MEM 10FCS” for “MEM 5FCS”, “atmosphere, the wells were stained with 0.1% Crystal Violet. An” for “atmosphere, an”

Row | IC50 [1] | IC50 [2] | IC50 [3] | IC50 [4] | Structure (SMILES)
1 | > 20 µg/mL | 5 µg/mL (≈ 16.8 µM) | 5 µg/mL (≈ 16.8 µM) | 5 µg/mL (≈ 16.8 µM) | CC(O)C(O)C(O)CC(O)c1coc(Cc2cnco2)n1 (stereo not drawn)
2 | 2.5 µg/mL (≈ 4.12 µM) | 0.2 µg/mL (≈ 0.33 µM) | 0.2 µg/mL (≈ 0.33 µM) | – | CCCCCCCCCCCCCCCCCCCCC(=O)OC(CC(O)C(O)C(C)O)c1coc(Cc2cnco2)n1 (stereo not drawn) [Digonazole (6), Digonazole]
3 | 0.2 µg/mL | 0.01 µg/mL | 0.02 µg/mL | 0.01 µg/mL | CCCCCCCCCCCCCCCCCCCCC(=O)OC(CC(OC(C)=O)C(OC(C)=O)C(C)OC(C)=O)c1coc(Cc2cnco2)n1 (stereo not drawn) [Digonazole triacetate (8), Digonazole triacetate]

Row | Structure (SMILES) | IC50 [1] | IC50 [2] | IC50 [3] | IC50 [4]
4 | CC(=O)OC(CC(OC(C)=O)C(OC(C)=O)C(C)OC(C)=O)c1coc(Cc2cnco2)n1 (stereo not drawn) [Tetraacetoxyhexyl dioxazole (10), Tetraacetoxyhexyl dioxazole] | 10 µg/mL (≈ 21.4 µM) | 1 µg/mL (≈ 2.14 µM) | 0.5 µg/mL (≈ 1.07 µM) | 10 µg/mL (≈ 21.4 µM)
